Measured values as given in ChEMBL document CHEMBL1147626, “Determination of the stable conformation of GABA(A)-benzodiazepine receptor bivalent ligands by low temperature NMR and X-ray analysis” (Bioorg Med Chem Lett, 2004).

Target: T1, GABA-A receptor; alpha-3/beta-3/gamma-2 (Homo sapiens, UniProt P18507+P28472+P34903)
T1 sequence (P18507 whole entry): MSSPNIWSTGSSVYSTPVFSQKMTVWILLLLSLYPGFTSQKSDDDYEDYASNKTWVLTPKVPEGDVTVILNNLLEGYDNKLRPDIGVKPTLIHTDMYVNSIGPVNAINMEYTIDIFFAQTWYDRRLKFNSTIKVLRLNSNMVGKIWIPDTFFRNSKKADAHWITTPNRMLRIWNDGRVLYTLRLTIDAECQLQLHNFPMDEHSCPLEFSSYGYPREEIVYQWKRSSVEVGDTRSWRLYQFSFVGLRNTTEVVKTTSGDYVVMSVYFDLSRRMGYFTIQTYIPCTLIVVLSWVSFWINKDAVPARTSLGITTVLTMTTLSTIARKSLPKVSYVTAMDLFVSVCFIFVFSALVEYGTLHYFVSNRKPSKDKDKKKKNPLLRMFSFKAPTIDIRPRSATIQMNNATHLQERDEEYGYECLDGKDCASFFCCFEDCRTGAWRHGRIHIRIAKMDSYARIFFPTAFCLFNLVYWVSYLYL
T1 sequence (P28472 whole entry): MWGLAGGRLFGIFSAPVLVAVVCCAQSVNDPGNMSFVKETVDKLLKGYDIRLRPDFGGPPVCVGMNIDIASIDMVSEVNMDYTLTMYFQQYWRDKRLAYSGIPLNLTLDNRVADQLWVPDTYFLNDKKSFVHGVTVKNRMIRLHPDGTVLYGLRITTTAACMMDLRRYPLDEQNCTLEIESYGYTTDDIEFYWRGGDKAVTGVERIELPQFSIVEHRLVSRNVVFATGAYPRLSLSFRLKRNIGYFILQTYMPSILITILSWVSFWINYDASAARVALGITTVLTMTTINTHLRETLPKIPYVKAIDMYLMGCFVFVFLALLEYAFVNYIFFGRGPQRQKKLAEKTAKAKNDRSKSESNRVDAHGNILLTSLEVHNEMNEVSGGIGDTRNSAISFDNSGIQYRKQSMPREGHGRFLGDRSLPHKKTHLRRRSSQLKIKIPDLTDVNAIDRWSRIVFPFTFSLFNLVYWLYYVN
T1 sequence (P34903 whole entry): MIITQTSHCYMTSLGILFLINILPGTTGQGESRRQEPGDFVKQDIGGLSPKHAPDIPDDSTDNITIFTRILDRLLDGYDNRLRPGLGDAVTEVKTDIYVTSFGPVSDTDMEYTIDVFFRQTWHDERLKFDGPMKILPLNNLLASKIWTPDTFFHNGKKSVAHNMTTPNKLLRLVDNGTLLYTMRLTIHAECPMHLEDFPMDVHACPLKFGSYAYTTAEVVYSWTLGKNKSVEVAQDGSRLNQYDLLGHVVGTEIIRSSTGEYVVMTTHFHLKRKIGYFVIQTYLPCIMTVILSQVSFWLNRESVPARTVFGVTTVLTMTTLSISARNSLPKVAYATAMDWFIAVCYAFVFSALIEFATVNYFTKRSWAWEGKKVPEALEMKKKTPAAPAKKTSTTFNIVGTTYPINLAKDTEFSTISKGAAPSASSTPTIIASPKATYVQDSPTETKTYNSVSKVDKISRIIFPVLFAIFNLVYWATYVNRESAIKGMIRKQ
Assay: In vitro inhibition of [3H]-Ro- 15-1788 binding to human GABA-A receptor alpha-3-beta-3-gamma-2 subunits expressed in L(tk-)cells
Type: cell-based

Ki: 858 nM
Compound: C#Cc1ccc2c(c1)C(=O)N(C)Cc1c(C(=O)OCCCOC(=O)c3ncn4c3CN(C)C(=O)c3cc(C#C)ccc3-4)ncn1-2
